Measurements published in publication PMC12293736, “Discovery of N-(6-Methoxypyridin-3-yl)quinoline-2-amine Derivatives for Imaging Aggregated α-Synuclein in Parkinson’s Disease with Positron Emission Tomography” (Cells, 2025).

What follows are compounds tested against recombinant α-synuclein fibrils (Homo sapiens, UniProt P37840) (assay: radioactive competitive binding assay with [^3H]BF2846 (Tables 1 and 2: or [^18F]7j with LBD-amplified fibrils)). Settings: Table 1; vs. [^3H]BF2846 or [^18F]7j as radioligand; NB = no binding affinity measurable; read-out: Ki.
Description: Three concentrations of the test compounds (10 nM, 100 nM, and 1 μM) were selected and individually mixed with [^3H]BF2846 (∼4 nM). Each mixture was then separately added to 50 nM of recombinant α-syn fibrils in a working buffer (50 mM Tris-HCl, 0.01% bovine serum albumin (BSA)). The mixture (150 μL) was gently mixed via agitation, covered, and then incubated at 37 °C for 1.5 h in a non-binding 96-well plate (Corning Inc., Corning, NY, USA; catalog no. 3605). The mixture was filtered through a Unifilter-96 harvesting system (PerkinElmer Inc., Waltham, MA, USA) and then washed three times with 250 μL of ice-cold buffer containing 10 mM Tris-HCl (pH 7.4), 15 mM NaCl, and 20% EtOH. Next, 50 μL of scintillation cocktail (MicroScint-20, PerkinElmer) was added to the collected filtrate and counted on a Microbeta system (PerkinElmer Inc., Waltham, MA, USA). The total binding was measured in the absence of the tested compounds, and non-specific binding was defined by the presence of 100 nM of unlabeled BF2846 in the working buffer.
For the full curve of α-syn competition binding, [^3H]BF2846 (∼4 nM) was incubated with fixed concentrations of 50 nM α-syn fibrils and ten concentrations of the tested compounds (0.05−1000 nM). All data points were collected in three individual experiments. The equilibrium inhibition constants, Ki values, were obtained from EC50 values using the equation Ki = EC50/(1 + [radioligand]/Kd) via non-linear regression from GraphPad Prism v.9.3.1 (GraphPad Software, San Diego, CA, USA) […]
In addition, competition assays were performed with LBD-amplified fibrils and [^18F]TZ61-44 with slight modifications. The method used to produce LBD-amplified fibrils is described by Dhavale et al., and the source of the tissue was the Banner Sun Health Research Institute Brain and Body Donation Program of Sun City, Arizona. Each test compound concentration (0.001–1 µM) was individually mixed with [^18F]TZ61-44 (2 nM), and the resulting mixture was then added to 25 nM of LBD-amplified fibrils in 30 mM of Tris-HCl buffer (pH 7.4) containing 0.1% BSA. The mix was incubated for 1 h with shaking. The samples were then transferred to Multiscreen FB filter plates (Catalog MSFBN6B50, MilliporeSigma) and washed three times with cold (4 °C) buffer. The glass fiber filters containing fibril-bound radioligands were removed and counted immediately in a PerkinElmer (1450-021) Trilux MicroBeta Liquid Scintillation counter using 150 µL of Optiphase Supermix cocktail (Perkin Elmer). All data points were obtained in triplicate. The data were analyzed using Graphpad Prism software (version 10) to the obtain EC50 and Ki values by fitting the data to a one-site competition model. The synthesis of the tested compounds is described in the Supporting Information. […]
6. Alpha-Synuclein Binding Affinity Studies a). Determination of α-synuclein binding activity using radioactive competitive assay [ 3H]BF2846 Three concentrations of test compounds (10nM, 100nM, and 1μM) were selected and individually mixed with [3H]BF2846 ( ∼4 nM). Each mixture was then separately added to 50 nM of recombinant α-syn fibrils in a working buffer (50 mM Tris-HCl, 0.01% bovine serum albumin (BSA)). The mixture (150 μL) was gently mixed by agitation, covered, and then incubated at 37°C for 1.5 h in a nonbinding 96 well plate (Corning, 3605). The mixture was filtered through a Unifilter – 96 harvesting system (PerkinElmer) and then washed three times with 250 μL of ice-cold buffer containing 10 mM Tris – HCl (pH7.4), 15mM NaCl, and 20% EtOH. 50μL of scintillation cocktail (MicroScint-20, PerkinElmer) was added to the collected filtrate and counted on a Microbeta system (PerkinElmer). Total binding was measured in the absence of tested compounds, and nonspecific binding was defined by the presence of 100 nM unlabeled BF2846 in the working buffer. The data analysis was carried out in the following equation and graphically presented with a heatmap. […]

Ki | Compound
~100 nM | COc1ccc(Nc2ccc3ccccc3n2)cn1 [Compound 3a]
418 nM | COc1ccc(Nc2cnc3ccccc3c2)cn1 [Compound 3c]
> 1000 nM | COc1ccc(Nc2ccc3ncccc3c2)cn1 [Compound 3d]
46 nM | COc1ccc(Nc2ccc3cnccc3c2)cn1 [Compound 3e]
> 1000 nM | COc1ccc(Nc2ccc3ccncc3c2)cn1 [Compound 3f]
> 1000 nM | COc1ccc(Nc2ccc3cccnc3c2)cn1 [Compound 3g]

Same assay, conditions: Table 2; [^3H]BF2846 or [^18F]7j indirect competitive binding assay; read-out: Ki

Compound | Ki
COc1ccc(Nc2cc(F)c3ccccc3n2)cn1 [Compound 5b] | 65 nM
COc1ccc(Nc2ccc3c(F)cccc3n2)cn1 [Compound 5c] | 33 nM
COc1ccc(Nc2ccc3ccc(F)cc3n2)cn1 [Compound 5e] | 53 nM
COc1ccc(Nc2ccc3cccc(F)c3n2)cn1 [Compound 5f] | 41 nM
COc1ccc(Nc2ccc3cc([N+](=O)[O-])ccc3n2)cn1 [Compound 7a] | 21 nM
COc1ccc(Nc2ccc3cc(OS(=O)(=O)F)ccc3n2)cn1 [Compound 7i] | 320 nM

The next lines start with the values.

Ki | Compound
27 nM | COc1ccc(Nc2ccc3cc(F)ccc3n2)cn1 [Compound 5d]
82 nM | COc1ccc(Nc2ccc3cc(N)ccc3n2)cn1 [Compound 7c]
70 nM | COc1ccc(Nc2ccc3cc(O)ccc3n2)cn1 [Compound 7e, 2-((6-Methoxypyridin-3-yl)amino)quinolin-6-ol]
4.6 nM | COc1ccc2nc(Nc3ccc(OC)nc3)ccc2c1 [Compound 7f]
23 nM | COc1ccc(Nc2ccc3cc(OC(F)F)ccc3n2)cn1 [Compound 7g]
~100 nM | COc1ccc(Nc2ccc3cc(OC(F)(F)F)ccc3n2)cn1 [Compound 7h]
6.4 nM | COc1ccc(Nc2ccc3cc(OCCF)ccc3n2)cn1 [Compound 7j]

Same assay, conditions: Table 3; [^3H]BF2846 indirect competitive binding assay; read-out: Ki

Compound | Ki
COc1ccc(Nc2ccc3cc(OCC4CCCCC4)ccc3n2)cn1 [Compound 8b] | > 500 nM
COc1ccc(COc2ccc3nc(Nc4ccc(OC)nc4)ccc3c2)cc1 [Compound 8f] | 20 nM
COc1cccc(COc2ccc3nc(Nc4ccc(OC)nc4)ccc3c2)c1 [Compound 8g] | 36 nM
COc1ccc(Nc2ccc3cc(OCc4ccc(F)cc4)ccc3n2)cn1 [Compound 8h] | 66.3 nM
COc1ccc(Nc2ccc3nc(Nc4ccc(OC)nc4)ccc3c2)cn1 [Compound 8j] | > 1000 nM

Further lines, results first:

Ki | Compound
50 nM | COc1ccc(Nc2ccc3cc(OCCOCCF)ccc3n2)cn1 [Compound 7k]
49 nM | COc1ccc(Nc2ccc3cc(OCCOCCOCCF)ccc3n2)cn1 [Compound 7l]
42 nM | COc1ccc(Nc2ccc3cc(OCCOCCOCCOCCF)ccc3n2)cn1 [Compound 7m]
397 nM | COc1ccc2nc(Nc3ccc(F)nc3)ccc2c1 [Compound 7n]
182 nM | COc1ccc2nc(Nc3ccc(C(F)(F)F)nc3)ccc2c1 [Compound 7o]
81 nM | FCCOc1ccc2nc(Nc3ccc(C(F)(F)F)nc3)ccc2c1 [Compound 7p]
10 nM | COc1ccc2nc(Nc3ccc(OC(F)(F)F)nc3)ccc2c1 [Compound 7q]
197 nM | COc1ccc2nc(Nc3ccc(SC)nc3)ccc2c1 [Compound 7r]
26.1 nM | Cc1ccc(Nc2ccc3cc(OCCF)ccc3n2)cn1 [Compound 7s]
> 500 nM | FCCOc1ccc2nc(Nc3cccnc3)ccc2c1 [Compound 7t]
44.6 nM | COc1ccc(Nc2ccc3cc(OCC(F)(F)F)ccc3n2)cn1 [Compound 7u]
> 500 nM | COc1ccc(Nc2ccc3cc(OCC4COC4)ccc3n2)cn1 [Compound 8a]
47.7 nM | COc1ccc(Nc2ccc3cc(OCc4ccccc4)ccc3n2)cn1 [Compound 8c]
24 nM | COc1ccc(Nc2ccc3cc(OCc4cccnc4)ccc3n2)cn1 [Compound 8e]
5 nM | COc1ccc(Nc2ccc3cc(OC/C=C/I)ccc3n2)cn1 [Compound 8i]

Same assay, conditions: [^3H]BF2846 competitive assay; read-out: Ki value for α-synuclein fibrils

Ki | Compound
100 nM | COc1ccc(Nc2ccc3ccccc3n2)cn1 [Compound 3a]
100 nM | COc1ccc(Nc2ccc3cc(OC(F)(F)F)ccc3n2)cn1 [Compound 7h]
